From patent publication US8901118B2, “Compounds and methods for kinase modulation, and indications therefor” (Plexxikon Inc., priority 2010, dated 2014)
pIC50: −log10 of the molar value.

What was measured:
c-Kit kinase = c-Kit kinase (Homo sapiens, UniProt P10721); assay: c-Kit kinase biochemical activity assay (AlphaScreen, biotin-(E4Y)10 phosphorylation); details: 100 μM ATP; read-out: Biochemical Inhibition IC50 Kit
In short: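 Phosphorylation of 30 nM biotin-(E4Y)10 by c-Kit (0.75 ng per reaction) with 100 µM ATP in HEPES pH 7.5 buffer with Mg2+/Mn2+, 5% DMSO, 1 h at room temperature; 8-point 1:2 compound dilutions. AlphaScreen detection with streptavidin donor and PY20 acceptor beads after EDTA stop. IC50 from signal versus concentration.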

CYP2C19 = CYP2C19 (Homo sapiens, UniProt P33261); assay: CYP2C19 inhibition (fluorescent substrate CEC); format: in vitro ADME; details: read-out: Cyp IC50 2C19
Chain of CYP2C19 (P33261 whole entry): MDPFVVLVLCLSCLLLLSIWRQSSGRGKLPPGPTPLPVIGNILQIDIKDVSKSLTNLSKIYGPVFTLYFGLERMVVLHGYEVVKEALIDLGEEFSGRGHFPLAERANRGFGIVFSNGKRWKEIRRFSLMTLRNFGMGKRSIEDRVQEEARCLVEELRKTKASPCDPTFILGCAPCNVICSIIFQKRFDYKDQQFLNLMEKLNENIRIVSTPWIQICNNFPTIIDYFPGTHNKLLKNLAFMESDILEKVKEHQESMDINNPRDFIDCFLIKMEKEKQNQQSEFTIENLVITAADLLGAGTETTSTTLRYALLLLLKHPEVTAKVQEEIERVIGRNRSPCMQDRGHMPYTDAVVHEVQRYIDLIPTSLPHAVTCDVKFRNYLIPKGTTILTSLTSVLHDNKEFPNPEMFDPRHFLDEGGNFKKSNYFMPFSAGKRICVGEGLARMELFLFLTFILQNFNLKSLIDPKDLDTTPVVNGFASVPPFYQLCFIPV
In short: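 Test compounds, 10-point 1:1 serial dilutions in NADPH-regenerating cofactor mix, were preincubated 10 min at 37° C before recombinant enzyme and fluorogenic substrate reactions at 37° C (CYP1A2 15 min; CYP2C9 45 min; CYP2C19, 2D6 30 min). Product fluorescence was read at 409 ex with 460 em (1A2, 2C19) or 530 em (2C9, 2D6), and IC50 fitted from signal versus concentration.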

Fms kinase = Fms kinase (Homo sapiens, UniProt P07333); assay: Fms kinase biochemical activity assay (AlphaScreen, biotin-(E4Y)10 phosphorylation); details: 100 μM ATP; read-out: Biochemical Inhibition IC50 Fms
Chain of Fms kinase (P07333 20-972): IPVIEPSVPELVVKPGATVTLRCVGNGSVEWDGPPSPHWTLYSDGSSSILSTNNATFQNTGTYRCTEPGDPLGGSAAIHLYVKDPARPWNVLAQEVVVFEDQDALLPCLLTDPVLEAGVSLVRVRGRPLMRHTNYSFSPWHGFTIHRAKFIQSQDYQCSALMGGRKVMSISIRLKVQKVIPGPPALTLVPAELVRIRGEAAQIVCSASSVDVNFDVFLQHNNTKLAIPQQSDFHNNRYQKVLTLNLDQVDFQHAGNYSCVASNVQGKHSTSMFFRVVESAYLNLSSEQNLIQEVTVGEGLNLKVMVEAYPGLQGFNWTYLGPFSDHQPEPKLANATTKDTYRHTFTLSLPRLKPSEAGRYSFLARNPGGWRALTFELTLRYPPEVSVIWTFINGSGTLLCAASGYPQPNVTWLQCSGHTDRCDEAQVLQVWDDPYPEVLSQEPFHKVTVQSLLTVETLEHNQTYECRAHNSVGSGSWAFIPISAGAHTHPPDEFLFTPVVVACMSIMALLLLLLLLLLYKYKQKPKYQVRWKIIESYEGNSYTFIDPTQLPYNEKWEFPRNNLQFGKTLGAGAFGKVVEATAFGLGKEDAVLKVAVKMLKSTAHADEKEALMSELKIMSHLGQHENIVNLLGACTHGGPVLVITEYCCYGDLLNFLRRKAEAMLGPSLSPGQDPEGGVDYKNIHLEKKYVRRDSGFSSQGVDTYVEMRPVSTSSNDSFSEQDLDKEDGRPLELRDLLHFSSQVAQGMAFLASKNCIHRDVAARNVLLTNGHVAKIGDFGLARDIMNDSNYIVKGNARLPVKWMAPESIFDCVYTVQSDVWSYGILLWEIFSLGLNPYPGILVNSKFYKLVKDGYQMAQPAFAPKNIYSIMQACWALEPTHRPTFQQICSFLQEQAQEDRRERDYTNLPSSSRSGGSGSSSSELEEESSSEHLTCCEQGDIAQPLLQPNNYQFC
In short: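 Fms kinase (1 ng/well) phosphorylating 30 nM biotin-(E4Y)10 with 100 μM ATP in 25 mM Hepes pH 7.5, MgCl2/MnCl2, 5% DMSO, 20 min at 30 °C. Phosphotyrosine detected by AlphaScreen streptavidin donor and PY20 acceptor beads; IC50 from signal versus compound concentration.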

CYP3A4(BFC) = CYP3A4(BFC) (Homo sapiens, UniProt P08684); assay: CYP3A4(BFC) inhibition; format: in vitro ADME; details: CYP3A4, substrate BFC; read-out: Cyp IC50 3A4(BFC)
Chain of CYP3A4(BFC) (P08684 whole entry): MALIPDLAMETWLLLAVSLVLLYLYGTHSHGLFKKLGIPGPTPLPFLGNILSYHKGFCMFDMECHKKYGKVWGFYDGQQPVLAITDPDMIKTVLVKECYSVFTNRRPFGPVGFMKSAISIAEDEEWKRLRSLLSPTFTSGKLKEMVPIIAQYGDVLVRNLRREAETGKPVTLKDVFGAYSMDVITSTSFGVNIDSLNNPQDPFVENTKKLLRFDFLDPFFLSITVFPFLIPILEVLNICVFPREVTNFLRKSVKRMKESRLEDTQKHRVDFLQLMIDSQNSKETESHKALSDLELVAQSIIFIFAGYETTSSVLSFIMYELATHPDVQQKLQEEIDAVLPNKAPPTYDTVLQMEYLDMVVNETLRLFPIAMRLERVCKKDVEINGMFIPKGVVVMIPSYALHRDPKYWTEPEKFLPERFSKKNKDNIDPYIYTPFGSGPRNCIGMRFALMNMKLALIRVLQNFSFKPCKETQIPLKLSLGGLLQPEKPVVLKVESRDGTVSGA
In short: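 Inhibition of human CYP3A4 with the BFC substrate was measured by fluorescence loss of the metabolized product. Compounds at 100 mM in DMSO were diluted 1 μL into 82 μL acetonitrile, then 11 μL into 204 μL cofactor mix with NADPH regeneration solutions, and serially diluted 1:1 to 10 points. Plates were incubated 30 min at 37° C and read at 409 ex/460 em to obtain IC50.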

Chain of c-Kit kinase (P10721 26-976): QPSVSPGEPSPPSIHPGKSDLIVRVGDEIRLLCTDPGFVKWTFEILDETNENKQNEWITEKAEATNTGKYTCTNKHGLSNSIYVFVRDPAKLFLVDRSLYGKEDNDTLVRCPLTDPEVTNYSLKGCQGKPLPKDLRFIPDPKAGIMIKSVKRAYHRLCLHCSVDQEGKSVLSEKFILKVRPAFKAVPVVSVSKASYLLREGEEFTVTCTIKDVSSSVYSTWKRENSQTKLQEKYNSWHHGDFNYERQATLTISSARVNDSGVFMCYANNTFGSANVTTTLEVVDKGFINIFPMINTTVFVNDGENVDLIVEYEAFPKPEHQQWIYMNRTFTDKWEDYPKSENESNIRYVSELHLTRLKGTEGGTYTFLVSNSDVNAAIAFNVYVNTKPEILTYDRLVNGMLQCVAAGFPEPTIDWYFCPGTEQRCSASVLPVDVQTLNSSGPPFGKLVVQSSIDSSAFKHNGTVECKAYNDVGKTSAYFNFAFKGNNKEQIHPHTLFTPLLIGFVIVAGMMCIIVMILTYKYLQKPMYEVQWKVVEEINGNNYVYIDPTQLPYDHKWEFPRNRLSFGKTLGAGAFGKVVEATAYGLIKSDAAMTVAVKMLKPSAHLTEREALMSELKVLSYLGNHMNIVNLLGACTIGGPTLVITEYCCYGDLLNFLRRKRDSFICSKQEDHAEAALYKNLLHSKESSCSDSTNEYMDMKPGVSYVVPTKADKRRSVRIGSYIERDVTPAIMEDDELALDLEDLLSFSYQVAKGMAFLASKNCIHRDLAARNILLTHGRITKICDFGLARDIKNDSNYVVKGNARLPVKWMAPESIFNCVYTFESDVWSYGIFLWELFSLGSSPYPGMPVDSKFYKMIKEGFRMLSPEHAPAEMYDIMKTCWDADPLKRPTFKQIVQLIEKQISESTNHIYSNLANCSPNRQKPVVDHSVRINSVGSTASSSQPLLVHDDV

Compound | pIC50 (c-Kit kinase) | pIC50 (CYP2C19) | pIC50 (Fms kinase) | pIC50 (CYP3A4(BFC))
CCN1CCC(Nc2ncnc3[nH]cc(C(=O)c4ccc(Nc5ccc(OC)nc5)nc4F)c23)CC1 [Compound P-4074, [4-[(1-ethyl-4-piperidyl)amino]-7H-pyrrolo[2,3-d]pyrimidin-5-yl]-[2-fluoro-6-[(6-methoxy-3-pyridyl)amino]-3-pyridyl]methanone] | > 6.00 | 5.00 to 5.30 | > 7.00 | < 5.00
O=C(c1ccc(NC2CCC(F)(F)CC2)nc1Cl)c1c[nH]c2ncnc(NCC(F)(F)F)c12 [Compound P-4057, [2-chloro-6-[(4,4-difluorocyclohexyl)amino]-3-pyridyl]-[4-(2,2,2-trifluoroethylamino)-7H-pyrrolo[2,3-d]pyrimidin-5-yl]methanone] | < 6.00 | < 5.00 | > 7.00 | < 5.00
CCCCNc1ncnc2[nH]cc(C(=O)c3ccc(Nc4ccc(OC)nc4)nc3F)c12 [Compound P-4080, [4-(butylamino)-7H-pyrrolo[2,3-d]pyrimidin-5-yl]-[2-fluoro-6-[(6-methoxy-3-pyridyl)amino]-3-pyridyl]methanone] | > 6.00 | < 5.00 | > 8.00 | < 5.00
O=C(c1ccc(Nc2ccc(C3CC3)nc2)nc1F)c1c[nH]c2ncnc(NCC(F)(F)F)c12 [Compound P-4090, [6-[(6-cyclopropyl-3-pyridyl)amino]-2-fluoro-3-pyridyl]-[4-(2,2,2-trifluoroethylamino)-7H-pyrrolo[2,3-d]pyrimidin-5-yl]methanone] | > 6.00 | < 5.00 | > 7.00 | < 5.00
CNc1ncnc2[nH]cc(C(=O)c3ccc(NC4CCCCC4)nc3Cl)c12 [Compound P-4110, [2-chloro-6-(cyclohexylamino)-3-pyridyl]-[4-(methylamino)-7H-pyrrolo[2,3-d]pyrimidin-5-yl]methanone] | > 6.00 | > 5.30 | > 7.00 | < 5.00
COc1ccc(Nc2ccc(C(=O)c3c[nH]c4ncnc(NC5CCC5)c34)c(F)n2)cn1 [Compound P-4076, [4-(cyclobutylamino)-7H-pyrrolo[2,3-d]pyrimidin-5-yl]-[2-fluoro-6-[(6-methoxy-3-pyridyl)amino]-3-pyridyl]methanone] | > 7.00 | 5.00 to 5.30 | > 8.00 | < 5.00
CCC(CC)Nc1ncnc2[nH]cc(C(=O)c3ccc(Nc4ccc(OC)nc4)nc3F)c12 [Compound P-4077, [4-(1-ethylpropylamino)-7H-pyrrolo[2,3-d]pyrimidin-5-yl]-[2-fluoro-6-[(6-methoxy-3-pyridyl)amino]-3-pyridyl]methanone] | > 6.00 | 5.00 to 5.30 | > 7.00 | < 5.00
COc1ccc(Nc2ccc(C(=O)c3c[nH]c4ncnc(NCc5ccc(C(F)(F)F)nc5)c34)c(F)n2)cn1 [Compound P-4071, [2-fluoro-6-[(6-methoxy-3-pyridyl)amino]-3-pyridyl]-[4-[[6-(trifluoromethyl)-3-pyridyl]methylamino]-7H-pyrrolo[2,3-d]pyrimidin-5-yl]methanone] | < 6.00 | < 5.00 | > 6.00 | < 5.00
COc1ccc(Nc2ccc(C(=O)c3c[nH]c4ncnc(NCC5CC5)c34)c(F)n2)cn1 [Compound P-4067, [4-(cyclopropylmethylamino)-7H-pyrrolo[2,3-d]pyrimidin-5-yl]-[2-fluoro-6-[(6-methoxy-3-pyridyl)amino]-3-pyridyl]methanone] | > 6.00 | 5.00 to 5.30 | > 8.00 | < 5.00
O=C(c1ccc(NC2CCC(F)(F)CC2)nc1Cl)c1c[nH]c2ncnc(NC3CC3)c12 [Compound P-4059, [2-chloro-6-[(4,4-difluorocyclohexyl)amino]-3-pyridyl]-[4-(cyclopropylamino)-7H-pyrrolo[2,3-d]pyrimidin-5-yl]methanone] | > 6.00 | < 5.00 | > 7.00 | < 5.00

More lines, now with the values ahead:

pIC50 (c-Kit kinase) | pIC50 (CYP2C19) | pIC50 (Fms kinase) | pIC50 (CYP3A4(BFC)) | Compound
> 7.00 | > 5.30 | > 7.00 | < 5.00 | CCc1ccc(Nc2ccc(C(=O)c3c[nH]c4ncnc(NCC(F)(F)F)c34)c(F)n2)cn1 [Compound P-4120, [6-[(6-ethyl-3-pyridyl)amino]-2-fluoro-3-pyridyl]-[4-(2,2,2-trifluoroethylamino)-7H-pyrrolo[2,3-d]pyrimidin-5-yl]methanone]
> 8.00 | < 5.00 | > 8.00 | < 5.00 | Clc1ccc(Nc2ncc(Cc3c[nH]c4ncc(Cl)cc34)cn2)cc1 [Compound P-3011, (4-Chloro-phenyl)-[5-(5-chloro-1H-pyrrolo[2,3-b]pyridin-3-ylmethyl)-pyrimidin-2-yl]-amine]
> 7.00 | < 5.00 | > 7.00 | < 5.00 | CCc1ccc(Nc2ccc(C(=O)c3c[nH]c4ncnc(NC5CCOCC5)c34)c(F)n2)cn1 [Compound P-4116, [6-[(6-ethyl-3-pyridyl)amino]-2-fluoro-3-pyridyl]-[4-(tetrahydropyran-4-ylamino)-7H-pyrrolo[2,3-d]pyrimidin-5-yl]methanone]
> 7.00 | > 5.30 | > 8.00 | < 5.00 | CNc1ncnc2[nH]cc(C(=O)c3ccc(Nc4ccc(C)nc4)nc3F)c12 [Compound P-4115, [2-fluoro-6-[(6-methyl-3-pyridyl)amino]-3-pyridyl]-[4-(methylamino)-7H-pyrrolo[2,3-d]pyrimidin-5-yl]methanone]
> 7.00 | < 5.00 | > 8.00 | > 5.00 | COc1ccc(Nc2ccc(C(=O)c3c[nH]c4ncnc(NC5CC5)c34)c(F)n2)cn1 [Compound P-4126, [4-(cyclopropylamino)-7H-pyrrolo[2,3-d]pyrimidin-5-yl]-[2-fluoro-6-[(6-methoxy-3-pyridyl)amino]-3-pyridyl]methanone]
> 8.00 | > 5.30 | > 8.00 | < 5.00 | CCc1ccc(Nc2ccc(C(=O)c3c[nH]c4ncnc(NC)c34)c(F)n2)cn1 [Compound P-4124, [6-[(6-ethyl-3-pyridyl)amino]-2-fluoro-3-pyridyl]-[4-(methylamino)-7H-pyrrolo[2,3-d]pyrimidin-5-yl]methanone]
> 8.00 | < 5.00 | > 8.00 | < 5.00 | CCNc1ncnc2[nH]cc(C(=O)c3ccc(Nc4ccc(CC)nc4)nc3F)c12 [Compound P-4123, [4-(ethylamino)-7H-pyrrolo[2,3-d]pyrimidin-5-yl]-[6-[(6-ethyl-3-pyridyl)amino]-2-fluoro-3-pyridyl]methanone]
